Structures are written as SMILES.

Common to all, as to type: in vivo
For experiment [1], the system named is Stellaria media. Nature of the experiment: Post-emergence herbicidal activity against STEME. As to conditions: Stellaria media, 504 h, dosage 320 g/ha, rated about 3 weeks after treatment. In short, it runs like this:
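Greenhouse plants treated at one-leaf stage, 2–3 weeks after sowing, by spraying WP or EC formulations with 0.5% additive at 600 l/ha water. Visual rating about 3 weeks later versus untreated controls (100% = plants dead, 0% = like controls).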

The next experiment has as its system Hordeum murinum. Nature of the experiment: Post-emergence herbicidal activity against HORMU. As to conditions: Hordeum murinum, 504 h, dosage 320 g/ha. In short, it runs like this:
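Greenhouse pot plants sprayed post-emergence at one-leaf stage (2-3 weeks after sowing) with WP or EC formulations, 0.5% additive, 600 l/ha water. Visual rating about 3 weeks later versus untreated controls: 100% = plants dead, 0% = like control.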

The subject of a further experiment is Pharbitis purpurea. Kind of experiment: Post-emergence herbicidal activity against PHBPU. The conditions noted are these: Ipomoea purpurea, 504 h, dosage 320 g/ha, rated about 3 weeks after treatment. The gist of the method: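 Greenhouse-grown plants sprayed post-emergence at the one-leaf stage, 2 to 3 weeks after sowing, with WP or EC formulations plus 0.5% additive at 600 l/ha water. Activity rated visually after about 3 weeks versus untreated controls (100% = plants dead, 0% = like control).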

The test system of experiment [2] is Alopecurus myosuroides. Kind of experiment: Pre-emergence herbicidal activity against ALOMY. The conditions noted are these: Alopecurus myosuroides, 504 h, dosage 80 g/ha, scored visually after about 3 weeks vs untreated controls (100% = plants have died, 0% = like control plants). The source says: (§1) 1. Pre-Emergence Herbicidal Action and Crop Plant Compatibility Seeds of monocotyledonous and dicotyledonous weed plants and crop plants are placed in plastic or wood fiber pots and covered with soil. The compounds of the invention, formulated in the form of wettable powders (WP) or as emulsion concentrates (EC), are then applied onto the surface of the covering soil as aqueous suspension or emulsion with addition of 0.5% additive at a water application rate of 600 l/ha (converted). After the treatment, the pots are placed in a greenhouse and kept under good growth conditions for the trial plants. After about 3 weeks, the effect of the preparations is scored visually in comparison with untreated controls as percentages. For example, 100% activity=the plants have died, 0% activity=like control plants. ABUTH: Abutilon theophrasti ALOMY: Alopecurus myosuroides

The next experiment concerns Amaranthus retroflexus. Nature of the experiment: Post-emergence herbicidal activity against AMARE. As to conditions: Amaranthus retroflexus, 504 h, dosage 320 g/ha, rated about 3 weeks after treatment. On the procedure:
AMARE: Amaranthus retroflexus AVEFA: Avena fatua 2. Post-Emergence Herbicidal Action and Crop Plant Compatibility Seeds of monocotyledonous and dicotyledonous weeds and crop plants are placed in sandy loam in plastic or wood-fiber pots, covered with soil and cultivated in a greenhouse under controlled growth conditions. 2 to 3 weeks after sowing, the test plants are treated at the one-leaf stage. The compounds of the invention, formulated in the form of wettable powders (WP) or as emulsion concentrates (EC), are then sprayed onto the green parts of the plants as aqueous suspension or emulsion with addition of 0.5% additive at a water application rate of 600 l/ha (converted). After the test plants had been kept in the greenhouse under optimum growth conditions for about 3 weeks, the activity of the preparations is rated visually in comparison to untreated controls. For example, 100% activity=the plants have died, 0% activity=like control plants.

The test system of experiment [3] is Alopecurus myosuroides. Nature of the experiment: Post-emergence herbicidal activity against ALOMY. The conditions noted are these: Alopecurus myosuroides, 504 h, dosage 320 g/ha, rated about 3 weeks after treatment. The gist of the method:
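Greenhouse-grown plants treated at one-leaf stage, 2 to 3 weeks after sowing, with WP or EC formulations sprayed as aqueous suspension/emulsion plus 0.5% additive at 600 l/ha. Activity rated visually about 3 weeks later versus untreated controls (100% = plants dead, 0% = like control).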

Experiment [4] has as its system Stellaria media. Kind of experiment: Pre-emergence herbicidal activity against STEME. The conditions noted are these: Stellaria media, 504 h, dosage 80 g/ha.
Text: as §1, with “STEME: Stellaria media VERPE: Veronica persica” for “ABUTH: Abutilon theophrasti ALOMY: Alopecurus myosuroides”

On to `C=CC1(C(=O)NC2=C(C(=O)OCC)COC2)CC(c2cc(F)cc(F)c2)=NO1` (centres unmarked) [I-23, ethyl 4-[[3-(3,5-difluorophenyl)-5-vinyl-4H-isoxazole-5-carbonyl]amino]-2,5-dihydrofuran-3-carboxylate], for which the pest or weed control at 320 g/ha in the experiment with Stellaria media [1] was 90%; in the experiment on Hordeum murinum, 100%; with Pharbitis purpurea, 90%; in the experiment with Amaranthus retroflexus, 80%; in the experiment with Alopecurus myosuroides [3], 100%. For the same molecule, the pest or weed control at 80 g/ha in the experiment on Alopecurus myosuroides [2] worked out at 90%.
For `COC(=O)[C@H]1C[C@@H](NC(=O)C2(OC)CC(c3cc(F)cc(F)c3)=NO2)CO1` (relative stereo) [I-05, methyl cis-4-[[3-(3,5-difluorophenyl)-5-methoxy-4H-isoxazole-5-carbonyl]amino]tetrahydrofuran-2-carboxylate], the pest or weed control at 320 g/ha in the experiment on Stellaria media [1], in the experiment with Pharbitis purpurea and with Alopecurus myosuroides [3] was 90% each time.
With `CCOC(=O)[C@H]1C[C@@H](NC(=O)C2(C)CC(c3cccc(F)c3)=NO2)CO1` (mixture of isomers) [I-30, ethyl cis-4-[[(5RS)-3-(3-fluorophenyl)-5-methyl-4H-isoxazole-5-carbonyl]amino]tetrahydrofuran-2-carboxylate], the pest or weed control at 320 g/ha in the experiment with Stellaria media [1] came out at 90%; in the experiment on Hordeum murinum, 100%; in the experiment with Pharbitis purpurea, 90%; with Alopecurus myosuroides [3], 100%. Moreover, the figures for the pest or weed control at 80 g/ha in the experiment with Alopecurus myosuroides [2] and with Stellaria media [4] were 100% and 90%, respectively.
As for `COC(=O)[C@@]1(OC)C[C@@H](NC(=O)C2(C)CC(c3cccc(F)c3)=NO2)CO1` (stereo partly drawn) [I-47, methyl (2R,4R)-4-[[3-(3-fluorophenyl)-5-methyl-4H-isoxazole-5-carbonyl]amino]-2-methoxytetrahydrofuran-2-carboxylate], the pest or weed control at 320 g/ha came to 90% with Stellaria media [1], 100% with Hordeum murinum, 90% with Pharbitis purpurea and 100% in the experiment with Alopecurus myosuroides [3].
`C=C[C@]1(C(=O)N[C@@H]2CO[C@@H](C(=O)OC)C2)CC(c2cc(F)cc(F)c2)=NO1` (mixture of isomers) [I-56, methyl trans-4-[[(5S)-3-(3,5-difluorophenyl)-5-vinyl-4H-isoxazole-5-carbonyl]amino]tetrahydrofuran-2-carboxylate]: the pest or weed control at 320 g/ha in the experiment on Stellaria media [1], in the experiment with Hordeum murinum, in the experiment on Pharbitis purpurea, with Amaranthus retroflexus and in the experiment on Alopecurus myosuroides [3] was 90% in each case.
As to `CC1(C(=O)N[C@H]2CO[C@@H](C(=O)OCc3ccccc3)C2)CC(c2cccc(F)c2)=NO1` (mixture of isomers) [I-34, benzyl cis-4-[[(5RS)-3-(3-fluorophenyl)-5-methyl-4H-isoxazole-5-carbonyl]amino]tetrahydrofuran-2-carboxylate], the pest or weed control at 320 g/ha in the experiment on Stellaria media [1] came out at 90%; in the experiment with Hordeum murinum, 100%; with Pharbitis purpurea, 90%; in the experiment with Amaranthus retroflexus it was 80%; with Alopecurus myosuroides [3] it was 100%. Moreover, the pest or weed control at 80 g/ha in the experiment with Alopecurus myosuroides [2] was 100%; in the experiment with Stellaria media [4], 90%.
In the case of `CC(C)OC(=O)[C@H]1C[C@@H](NC(=O)C2(C)CC(c3cccc(F)c3)=NO2)CO1` (mixture of isomers) [I-32, isopropyl cis-4-[[(5RS)-3-(3-fluorophenyl)-5-methyl-4H-isoxazole-5-carbonyl]amino]tetrahydrofuran-2-carboxylate], the pest or weed control at 320 g/ha with Stellaria media [1] amounted to 90%; in the experiment on Hordeum murinum, 90%; in the experiment with Pharbitis purpurea, 90%; in the experiment on Amaranthus retroflexus, 80%; with Alopecurus myosuroides [3], 90%. Besides, the pest or weed control at 80 g/ha came to 100% with Alopecurus myosuroides [2] and 90% with Stellaria media [4].
With `C=CC1(C(=O)N[C@H]2CO[C@@H](C(=O)OC)C2)CC(c2cccc(F)c2)=NO1` (relative stereo) [I-07, methyl cis-4-[[3-(3-fluorophenyl)-5-vinyl-4H-isoxazole-5-carbonyl]amino]tetrahydrofuran-2-carboxylate], the pest or weed control at 320 g/ha in the experiment with Stellaria media [1], with Pharbitis purpurea and with Alopecurus myosuroides [3] was 90% in each case.
For the molecule `COC(=O)[C@H]1C[C@@H](NC(=O)C2(C(F)(F)F)CC(c3cc(F)cc(F)c3)=NO2)CO1` (relative stereo) [I-06, methyl cis-4-[[3-(3,5-difluorophenyl)-5-(trifluoromethyl)-4H-isoxazole-5-carbonyl]amino]tetrahydrofuran-2-carboxylate], the pest or weed control at 320 g/ha came to 80% in the experiment on Stellaria media [1], 90% in the experiment with Pharbitis purpurea, 80% with Amaranthus retroflexus and 90% in the experiment on Alopecurus myosuroides [3]. In the experiment with Alopecurus myosuroides [2], this molecule registered a pest or weed control at 80 g/ha of 80%.
`COC(=O)[C@H]1C[C@H](NC(=O)[C@@]2(C)CC(c3cc(F)cc(F)c3)=NO2)CO1` (mixture of isomers) [I-55, methyl trans-4-[[(5R)-3-(3,5-difluorophenyl)-5-methyl-4H-isoxazole-5-carbonyl]amino]tetrahydrofuran-2-carboxylate]: the pest or weed control at 320 g/ha with Stellaria media [1] came to 90%; with Hordeum murinum it was 100%; with Pharbitis purpurea, 90%; in the experiment with Amaranthus retroflexus, 80%; in the experiment on Alopecurus myosuroides [3] it was 90%.
Turning to `COC(=O)[C@H]1C[C@@H](NC(=O)C2(OC)CC(c3ccccc3)=NO2)CO1` (relative stereo) [I-14, methyl cis-4-[(5-methoxy-3-phenyl-4H-isoxazole-5-carbonyl)amino]tetrahydrofuran-2-carboxylate], the pest or weed control at 320 g/ha worked out at 90% in the experiment with Stellaria media [1], 80% in the experiment on Pharbitis purpurea and 100% with Alopecurus myosuroides [3].
For the molecule `C=CC1(C(=O)N[C@H]2CO[C@@H](C(=O)OC)C2)CC(c2cc(Cl)cc(Cl)c2)=NO1` (relative stereo) [I-03, methyl cis-4-[[3-(3,5-dichlorophenyl)-5-vinyl-4H-isoxazole-5-carbonyl]amino]tetrahydrofuran-2-carboxylate], the pest or weed control at 320 g/ha in the experiment on Stellaria media [1], in the experiment with Pharbitis purpurea and with Alopecurus myosuroides [3] was 90% throughout.
Take `COC(=O)C1=C[C@H](NC(=O)C2(C)CC(c3cccc(F)c3)=NO2)CO1` (stereo partly drawn) [I-39, methyl (3S)-3-[[3-(3-fluorophenyl)-5-methyl-4H-isoxazole-5-carbonyl]amino]-2,3-dihydrofuran-5-carboxylate]: the pest or weed control at 320 g/ha in the experiment with Stellaria media [1] worked out at 90%; with Hordeum murinum, 100%; in the experiment with Pharbitis purpurea, 90%; with Amaranthus retroflexus, 80%; with Alopecurus myosuroides [3], 100%.
Turning to `COC(=O)[C@H]1C[C@@H](NC(=O)C2(C)CC(c3cc(C)cc(Br)c3)=NO2)CO1` (relative stereo) [I-04, methyl cis-4-[[3-(3-bromo-5-methylphenyl)-5-methyl-4H-isoxazole-5-carbonyl]amino]tetrahydrofuran-2-carboxylate], the pest or weed control at 320 g/ha with Stellaria media [1], with Pharbitis purpurea and with Alopecurus myosuroides [3] was 90% throughout.
